In ChEMBL document CHEMBL1149530, “Design and synthesis of a new, conformationally constrained, macrocyclic small-molecule inhibitor of STAT3 via 'click chemistry'” (Bioorg Med Chem Lett, 2007):
Where a SMILES comes first, the peptide text is derived from it. Bridges are numbered along the chain shown (N, C = ends). Triazole bridges read from a SMILES are 1,4-linked. [ ]: non-standard residue; d: D form. pY = N[C@@H](Cc1ccc(OP(=O)(O)O)cc1)C(=O)O; Lys(N3) = [N-]=[N+]=NCCCC[C@H](N)C(=O)O; Pra = C#CC[C@H](N)C(=O)O

Molecular target: Signal transducer and activator of transcription 3 (Homo sapiens, UniProt P40763)
Assay: Binding affinity to recombinant STAT3 by fluorescence polarization based binding assay

Chain of Signal transducer and activator of transcription 3 (P40763 whole entry): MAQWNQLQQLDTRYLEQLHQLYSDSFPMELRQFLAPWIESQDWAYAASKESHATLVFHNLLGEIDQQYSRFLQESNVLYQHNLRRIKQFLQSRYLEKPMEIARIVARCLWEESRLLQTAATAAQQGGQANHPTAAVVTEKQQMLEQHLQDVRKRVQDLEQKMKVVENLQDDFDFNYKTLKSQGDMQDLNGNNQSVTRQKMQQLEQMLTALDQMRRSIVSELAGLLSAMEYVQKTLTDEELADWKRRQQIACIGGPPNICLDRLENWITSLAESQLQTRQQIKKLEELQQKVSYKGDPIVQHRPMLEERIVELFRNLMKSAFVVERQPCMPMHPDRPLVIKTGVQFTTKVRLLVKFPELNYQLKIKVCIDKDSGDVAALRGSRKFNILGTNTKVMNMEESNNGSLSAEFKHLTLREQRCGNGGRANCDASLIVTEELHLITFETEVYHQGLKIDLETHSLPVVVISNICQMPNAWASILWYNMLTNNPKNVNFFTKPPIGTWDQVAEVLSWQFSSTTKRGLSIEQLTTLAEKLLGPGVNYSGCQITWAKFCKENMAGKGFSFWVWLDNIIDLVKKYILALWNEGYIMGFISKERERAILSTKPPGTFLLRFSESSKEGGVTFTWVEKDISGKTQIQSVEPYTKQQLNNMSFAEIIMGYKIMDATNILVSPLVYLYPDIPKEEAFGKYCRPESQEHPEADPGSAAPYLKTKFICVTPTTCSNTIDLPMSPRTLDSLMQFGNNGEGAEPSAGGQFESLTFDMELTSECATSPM

Row | Compound | Ki [µM]
1 | CC(=O)N[C@@H](Cc1ccc(OP(=O)(O)O)cc1)C(=O)N[C@@H](CC(C)C)C(=O)N[C@H]1CCCCn2cc(nn2)C[C@@H](C(=O)N[C@@H](Cc2ccccc2)C(N)=O)NC(=O)[C@H]([C@@H](C)O)NC1=O (Ac-[pY]L[Lys(N3)]T[Pra]F-NH2; triazole 3-5) | 7.3
2 | CC(=O)N[C@@H](Cc1ccc(OP(=O)(O)O)cc1)C(=O)N[C@@H](CC(C)C)C(=O)N[C@@H](CCCCN)C(=O)N[C@H](C(=O)N[C@@H](CCCCN)C(=O)N[C@@H](Cc1ccccc1)C(N)=O)[C@@H](C)O (HELM PEPTIDE1{[ac].[O=C([C@H](Cc1ccc(OP(=O)(O)O)cc1)N[*:1])[*:2]].L.K.T.K.F.[am]}$$$$V2.0) | 25.9
